Test results published in patent US4423056A, “5(Aminomethyl)-4,5,6,7-tetrahydro[d]thiazole containing compositions for and medical use in treating circulatory insufficiencies” (Laboratoires Jacques Logeais, priority 1979, dated 1983).
Where two headings read alike, the source gives them in different places.

Assays:
[1] = Acute toxicity in mice, LD50 oral and intraperitoneal; conditions: mouse, in vivo
Excerpt: Most of the compounds of the formula (I) have low toxicity, as is apparent from following Table II in which are given the LD50 per os and i.p. in mice.

collateral arteries = assay: Acute occlusion of the femoral artery: resistance of the collateral arteries, systemic blood pressure, tissue perfusion pressure; assay type: in vivo, dogs
Description: Thus, with some of the compounds, there was noted an increase of the arterial rate of flow from as low a dosage as 0.1-0.5 mg/kg i.v.

[2] = ip, read-out: Acute toxicity, intraperitoneal route LD50
[3] = po, per os, read-out: Acute toxicity, oral route LD50

Row | SMILES | LD50 [1, 2] [mg/kg] | LD50 [1, 3] [mg/kg] | decrease of the resistance of the collateral arteries (collateral arteries) | effect on systemic blood pressure (collateral arteries) | effect on tissue perfusion pressure (collateral arteries)
1 | NCC1CCCc2scnc21 (stereo not drawn) [Example 1, 4-Aminomethyl-4,5,6,7-tetrahydro-benzo[d]thiazole] | 140 | > 200 | – | – | –
2 | CNCC1CCCc2scnc21 (stereo not drawn) [Example 2, 4-(N-Methylaminomethyl)-4,5,6,7-tetrahydro-benzo[d]thiazole] | ≥ 200 | > 200 | – | – | –
3 | Cc1nc2c(s1)CCCC2CN (stereo not drawn) [Example 3, 2-Methyl-4-aminomethyl-4,5,6,7-tetrahydro-benzo[d]thiazole] | – | > 200 | – | – | –
4 | CNCC1CCc2scnc2C1 (stereo not drawn) [Example 5, 5-(N-Methylaminomethyl)-4,5,6,7-tetrahydro-benzo[d]thiazole] | > 200 | > 200 | – | – | –
5 | CNCC1CCc2sc(C)nc2C1 (stereo not drawn) [Example 6, 2-Methyl-5-(N-methylaminomethyl)-4,5,6,7-tetrahydrobenzo[d]thiazole] | – | > 200 | marked decrease | without substantially affecting | without substantially affecting
6 | CNCC1CCc2nc(C)sc2C1 (stereo not drawn) [Example 7, 2-Methyl-6-(N-methylaminomethyl)-4,5,6,7-tetrahydrobenzo[d]thiazole] | > 200 | > 200 | – | – | –
7 | NCC1CCc2ncsc2C1 (stereo not drawn) [Example 8, 6-Aminomethyl-4,5,6,7-tetrahydro-benzo[d]thiazole] | > 200 | > 200 | – | – | –
8 | CCNCC1CCc2nc(CC)sc2C1 (stereo not drawn) [Example 9, 2-Ethyl-6-(N-ethylaminomethyl)-4,5,6,7-tetrahydrobenzo[d]thiazole] | 120 | > 200 | – | – | –
9 | CCCNCC1CCc2ncsc2C1 (stereo not drawn) [Example 10, 6-(N-n-Propylaminomethyl)-4,5,6,7-tetrahydro-benzo[d]thiazole] | 190 | > 200 | – | – | –
10 | CCCCc1nc2c(s1)CCCC2CNC (stereo not drawn) [Example 11, 2-n-Butyl-4-(N-methylaminomethyl)4,5,6,7-tetrahydro-benzo[d]thiazole] | 58 | ≥ 200 | marked decrease | without substantially affecting | without substantially affecting
11 | CCCCc1nc2c(s1)CCC(CNC)C2 (stereo not drawn) [Example 12, 2-n-Butyl-5-(N-methylaminomethyl)-4,5,6,7-tetrahydrobenzo[d]thiazole] | 140 | > 200 | – | – | –
12 | CNCC1CCc2sc(C(C)C)nc2C1 (stereo not drawn) [Example 13, 2-Isopropyl-5-(N-methylaminomethyl)-4,5,6,7-tetrahydrobenzo[d]thiazole] | 140 | > 200 | – | – | –
13 | NCC1CCc2scnc2C1 (stereo not drawn) [Example 14, 5-aminomethyl-4,5,6,7-tetrahydro-benzo[d]thiazole] | > 200 | ≥ 200 | – | – | –
14 | Cc1nc2c(s1)CCC(CN)C2 (stereo not drawn) [Example 15, 2-methyl-5-aminomethyl-4,5,6,7-tetrahydro-benzo[d]thiazole] | > 200 | > 200 | – | – | –
15 | CNCC1CCc2ncsc2C1 (stereo not drawn) [Example 16, 6-(N--methylaminomethyl)-4,5,6,7-tetrahydro-benzo[d]thiazole] | 75 | 170 | – | – | –
16 | Cc1nc2c(s1)CC(CN)CC2 (stereo not drawn) [Example 17, 2-methyl-6-aminomethyl-4,5,6,7-tetrahydro-benzo[d]thiazole] | > 200 | > 200 | – | – | –
17 | CCCCNCC1CCCc2sc(C)nc21 (stereo not drawn) [Example 18, 2-methyl-4-(N--n-butylamino-methyl)-4,5,6,7-tetrahydro-benzo[d]thiazole] | 58 | > 200 | – | – | –
18 | Cc1nc2c(s1)CCC(CNC(C)C)C2 (stereo not drawn) [Example 19, 2-methyl-5-(N--isopropylamino-methyl)-4,5,6,7-tetrahydro-benzo[d]thiazole] | > 200 | > 200 | – | – | –
19 | CCCCNCC1CCc2sc(C)nc2C1 (stereo not drawn) [Example 20] | 58 | 145 | – | – | –
